Entries after “also recorded” stand apart in the source; their conditions may differ.
Assays:
SARS-CoV-2 Mpro [1] = molecular target: T1, SARS-CoV-2 Mpro (Severe acute respiratory syndrome coronavirus 2, UniProt P0DTD1); experiment: biochemical; settings: for inhibition of Mpro in the initial screen: 17 μM
SARS-CoV-2 Mpro [2] = molecular target: T1, SARS-CoV-2 Mpro; assay type: biochemical
SARS-CoV-2 [3] = assay type: cell-based
SARS-CoV-2 Mpro [4] = molecular target: T1, SARS-CoV-2 Mpro; assay type: biochemical; remark: listed apart in the source
SARS-CoV-2 infection = settings: in vivo; cited from earlier work
SARS-CoV-2 [5] = settings: read-out: IC50 for inhibition of SARS-CoV-2 replication; cited from earlier work
Calu-3 cells = settings: cited from earlier work

| Compound | inhibition of Mpro in the initial screen (SARS-CoV-2 Mpro [1]) | reversibility of Mpro inhibition on dilution (SARS-CoV-2 Mpro [2]) | inhibition of SARS-CoV-2 replication (in words) (SARS-CoV-2 [3]) | inhibition of Mpro activity, mass spectrometry assay (SARS-CoV-2 Mpro [4]) | also measured |
| --- | --- | --- | --- | --- | --- |
| O=c1c(O)c(-c2cc(O)c(O)c(O)c2)oc2cc(O)cc(O)c12 [Myricetin, reference compound] | showed inhibition | irreversible | inhibits SARS-CoV-2 replication |  |  |
| O=C1C[C@@H](c2ccccc2)Oc2cc(O)cc(O)c21 [pinocembrin] |  |  |  |  | inhibition of Mpro (in words) (SARS-CoV-2 Mpro [1]): relatively poor inhibition |
| O=c1cc(-c2ccc(O)c(-c3c(O)cc(O)c4c(=O)cc(-c5ccc(O)cc5)oc34)c2)oc2cc(O)cc(O)c12 [Amentoflavone] |  | reversible |  | completely inhibited |  |
| O=c1cc(-c2ccccc2)oc2cc(O)c(O)c(O)c12 [Baicalein, reference compound] | showed inhibition | reversible | inhibited SARS-CoV-2 infection |  | body weight after SARS-CoV-2 infection (SARS-CoV-2 infection): prevented reduction in body weight; lung injury resulting from SARS-CoV-2 infection (SARS-CoV-2 infection): decreased lung injury |
| O=c1cc(-c2ccc(O)cc2)oc2cc(O)cc(O)c12 [apigenin] |  | reversible | slightly better than baicalein at 50 μM; also recorded: inhibits viral replication at concentrations that are not toxic |  | IC50 (SARS-CoV-2 Mpro [1]): 20 ± 9 µM; toxicity in cell culture (Vero E6 cells): some toxicity; IC50 (SARS-CoV-2 [5]): 5.11 ± 0.26 µM; CC50 (Calu-3 cells): 302 ± 15 µM |
| O=c1c(-c2c(O)cc(O)c3c(=O)cc(-c4ccc(O)cc4)oc23)c(-c2ccc(O)cc2)oc2cc(O)cc(O)c12 [3,8'-Biapigenin] |  |  |  | completely inhibited |  |

— paper PMC10470319 (iScience, 2023)
